Patent US20240315243A1, “A COMBINATION OF FLU[…] SEAWEED EXTRACT” (priority 2021, published 2024)

How the values were obtained:
[1] = tested on: tomato crop; test: Field experiment, 3-way mixture, vigor rating of tomato crop; assay type: in vivo; details: for plant vigor compared with control (visual observation): field, tomato crop; for Vigor rating: visual rating, untreated plots = 100 percent, flubendiamide 30 GAH, profenofos 480 GAH, Ascophyllum Nodosum 120 GAH, solo or mixtures (1:16, 1:4, 4:1, 1:16:4)
Excerpt: Vigor descriptive scale was totally based on visual observations.

[2] = tested on: Spodoptera litura; test: Field experiment, 3-way mixture, Spodoptera litura in tomato crop; details: 7 Day after application, flubendiamide 30 GAH, profenofos 480 GAH, Ascophyllum Nodosum 120 GAH, solo or mixtures (1:16, 1:16:4)
Method: (§1) The action expected for a given combination of two or three active components can be calculated as follows: […]
(§2) The Field experiment was conducted at PI Industries Limited, Agricultural Research Station, Hyderabad to evaluate the efficacy of mixture of Flubendiamide, Profenofos and Ascophyllum Nodosum against Spodoptera litura in tomato crop. The tomato seedlings were transplanted and all the recommended packages of practices for tomato farming were followed in the experiment, except for plant protection chemicals. The ratio of Flubendiamide, Profenofos and Ascophyllum Nodosum mixture was 1:16:4 and 1:16:6 and the experiment was carried out in plots of 5×5 m in a randomized block design with three replications for each treatment. The applications were done with the help of a knapsack sprayer having a delivery of about 500 L/hectare. Care was taken to avoid drift of spray solution to adjacent experimental plots. Assessment of all the treatments was done for vigor, phytotoxicity and insect control. Observation on the insect larval count per plot from fifteen randomly selected plants was recorded at one day before and on 7 Day after application. […] Vigor descriptive scale was totally based on visual observations. For vigor comparison among treatments, untreated plots were considered as 100 percent and based on that rating was given to other treatments.

[3] = tested on: Helicoverpa armigera; test: Whole plant greenhouse assay, binary mixture, Helicoverpa armigera; assay type: in vivo; details: tomato plants, 3rd instar larva, 72 hours; flubendiamide 30 GAH, Ascophyllum nodosum 120 GAH, solo or mixture 30 + 120 (1:4)
Excerpt: (§3) 25 to 30 days old tomato plants were used for the treatments.

[4] = tested on: tomato crop; test: Field experiment, binary mixture, yield of tomato fruits; assay type: in vivo; details: flubendiamide 30 GAH, Ascophyllum nodosum 120 GAH, solo or mixture 30 + 120 (1:4)
Excerpt: (§4) The expected activity for a given combination of two active compounds (binary composition) can be calculated as follows: […]
(§5) In which E represents the expected percentage of inhibition of the disease for the combination of two pesticides at defined doses (for example equal to x and y respectively), x is the percentage of inhibition observed for the disease by the compound (1) at a given dose (equal to x), y is the percentage of inhibition observed for the disease by the compound (2) at a defined dose (equal to y).
(§6) The tomato seedlings were transplanted and all the recommended package of practices for tomato farming was followed in the experiment, except for plant protection chemicals. […] Vigor descriptive scale was totally based on visual observations.

[5] = tested on: Spodoptera litura; test: Whole plant greenhouse assay, binary mixture, Spodoptera litura; assay type: in vivo; details: tomato plants, 3rd instar larva, 72 hours; flubendiamide 30 GAH, Ascophyllum nodosum 120 GAH, solo or mixture 30 + 120 (1:4)
Excerpt: as §3

[6] = tested on: tomato crop; test: Field experiment, binary mixture, vigor rating of tomato crop; assay type: in vivo
Excerpt: as §4, §5, §6

[7] = tested on: Thrips; test: Whole plant greenhouse assay, 3-way mixture, Thrips; details: brinjal plants, thrips nymph, 72 hours; flubendiamide 30 GAH, profenofos 480 GAH, Ascophyllum Nodosum 120 GAH, solo or mixtures (1:16, 1:4, 4:1, 1:16:4)
Method: as §1
(§7) The experiments were carried out to study synergies if any in terms of the use of insecticides (Flubendiamide & Profenofos) and Ascophyllum Nodosum extract mixture at ratio 1:16:4 and 1:16:6 for the control of insect pest and phytotonic effect, if any.
(§8) The whole plant assay was conducted in the greenhouse, in which the desired quantity of the compounds (Flubendiamide, Profenofos and Ascophyllum Nodosum extract) and mixture in the ratio of 1:16:4 and 1:16:6 were prepared. 40-45 days old brinjal plants were used for the treatments. Prepared compounds (Table 7) were sprayed in the booth of Generation III research sprayer (to obtain uniformity in spray) with a delivery rate of about 500 L/hectare of spray solution through flat fan nozzle. After the treatment, the plants were allowed to dry and then moved to the laboratory. The treated plants were covered with a mylar sheet for restricting the larval movement. Nymph of thrips was released on to the plants individually and mylar was covered at the top with a muslin cloth for better air ventilation. The observation on dead, moribund and alive larvae was recorded at 72 hours after the treatment.

[8] = tested on: Spodoptera litura; test: Whole plant greenhouse assay, 3-way mixture, Spodoptera litura; details: tomato plants, 3rd instar larva, 72 hours; flubendiamide 30 GAH, profenofos 480 GAH, Ascophyllum Nodosum 120 GAH, solo or mixtures (1:16, 1:4, 4:1, 1:16:4)
Method: as §1, §7
as §8, with “tomato” for “brinjal”, “Single starved 3rd instar larva” for “Nymph of thrips”

[9] = tested on: Helicoverpa armigera; test: Whole plant greenhouse assay, 3-way mixture, Helicoverpa armigera; details: tomato plants, 3rd instar larva, 72 hours; flubendiamide 30 GAH, profenofos 480 GAH, Ascophyllum Nodosum 120 GAH, solo or mixtures (1:16, 4:1, 1:16:4)
Method: as §1, §7
as §8, with “days old tomato plants were” for “days old brinjal plants were”, “larval movement. Single starved 3rd instar larva was released” for “larval movement. Nymph of thrips was released”, “and mylar sheet was covered” for “and mylar was covered”

[10] = tested on: Spodoptera litura; test: Field experiment, binary mixture, Spodoptera litura in tomato crop; assay type: in vivo
Excerpt: as §6

[11] = tested on: tomato crop; test: Field experiment, 3-way mixture, yield of tomato fruits; assay type: in vivo; details: flubendiamide 30 GAH, profenofos 480 GAH, Ascophyllum Nodosum 120 GAH, solo or mixtures (1:4, 4:1, 1:16:4)
Method: as §1, §2

Row | Compound | plant vigor compared with control (visual observation) [1] | Vigor rating [1] | Observed % mortality [2] [%] | % mortality [3] [%] | Yield of tomato fruits, Ton/ha (observed) [4] [Ton/ha] | % mortality [5] [%] | plant vigor compared with control (visual observation) ([6]; field, tomato crop) | Vigor ([6]; visual rating, untreated plots = 100 percent, flubendiamide 30 GAH, Ascophyllum nodosum 120 GAH, solo or mixture 30 + 120 (1:4)) | Observed % mortality [7] [%] | Observed % mortality [8] [%] | Observed % mortality [9] [%] | efficacy against Spodoptera litura in tomato (in words) ([10]; 30 GAH) | Spodoptera litura (% control) 7 DAA ([10]; tomato, 7 DAA, flubendiamide 30 GAH, Ascophyllum nodosum 120 GAH, solo or mixture 30 + 120 (1:4)) [%] | Spodoptera litura (% control) 10 DAA ([10]; tomato, 10 DAA, flubendiamide 30 GAH, Ascophyllum nodosum 120 GAH, solo or mixture 30 + 120 (1:4)) [%] | Observed yield (ton/hectare) of tomato fruits [11] [ton/hectare]
1 | Cc1cc(C(F)(C(F)(F)F)C(F)(F)F)ccc1NC(=O)c1cccc(I)c1C(=O)NC(C)(C)CS(C)(=O)=O [Flubendiamide, 3-iodo-N′-(2-mesyl-1,1-dimethylethyl)-N-{4-[1,2,2,2-tetrafluoro-1-(trifluoromethyl)ethyl]-o-tolyl}phthalamide] | good plant vigor | 125 | 72.7 | 70 | 60.16 | 70 | good plant vigor | 110 | 8 | 72 | 65 | effectively controlled the insect pests | 66.67 | 70.00 | 64.20
2 | CCCSP(=O)(OCC)Oc1ccc(Br)cc1Cl (stereo not shown) [Profenofos, profenofos] | good plant vigor | 120 | 55.6 |  |  |  |  |  | 72 | 52 | 50 |  |  |  | 56.95
